Measurements reported in PMC12300992, “A Machine Learning Platform for Isoform-Specific Identification and Profiling of Human Carbonic Anhydrase Inhibitors” (Pharmaceuticals, 2025).

How the values were obtained:
hCA I = hCA I (Homo sapiens, UniProt P00915); test: CO2 hydrase stopped-flow inhibition assay, hCA I; conditions: for experimental activity class hCA I: Table S2, Ki threshold of 1 µM
Protocol: (§1) The ionic strength was maintained at a constant using 0.1 M Na2SO4 or NaClO4, as these anions are non-inhibitory at the concentration employed. […] Inhibitor stock solutions were prepared at a concentration of 10 mM in 1:1, v/v DMSO/water mixture and were subsequently diluted up to 0.01 nM in the assay buffer. To determine the inhibition constant (Ki), at least seven different inhibitor concentrations were tested. The enzyme and the inhibitor were pre-incubated for 15 min to allow the complete formation of the enzyme-inhibitor complex. Each inhibitor concentration was tested in triplicate, and the values reported throughout the study represent the mean of these replicates. […] These enzyme concentrations were measured by titration with ethoxzolamide and spectrophotometrically for CA I and II.

hCA II = hCA II (Homo sapiens, UniProt P00918); test: CO2 hydrase stopped-flow inhibition assay, hCA II; conditions: for experimental activity class hCA II: Table S2, Ki threshold of 1 µM
Protocol: as §1

hCA IX = hCA IX (Homo sapiens, UniProt Q16790); test: CO2 hydrase stopped-flow inhibition assay, hCA IX; conditions: for experimental activity class hCA IX: Table S2, Ki threshold of 1 µM
Protocol: as §1

hCA XII = hCA XII (Homo sapiens, UniProt O43570); test: CO2 hydrase stopped-flow inhibition assay, hCA XII; conditions: for experimental activity class hCA XII: Table S2, Ki threshold of 1 µM
Protocol: as §1

α-amylase = system: α-amylase; set-up: method as in PMID 26395057; conditions: cited from earlier work
[1] = system: Z mutant (Glu342Lys) of α1-antitrypsin; set-up: method as in PMID 17918823; conditions: cited from earlier work
bacterial DNA gyrase B = system: bacterial DNA gyrase B; set-up: method as in PMID 20045642; conditions: cited from earlier work

Chain of hCA XII (O43570 25-354): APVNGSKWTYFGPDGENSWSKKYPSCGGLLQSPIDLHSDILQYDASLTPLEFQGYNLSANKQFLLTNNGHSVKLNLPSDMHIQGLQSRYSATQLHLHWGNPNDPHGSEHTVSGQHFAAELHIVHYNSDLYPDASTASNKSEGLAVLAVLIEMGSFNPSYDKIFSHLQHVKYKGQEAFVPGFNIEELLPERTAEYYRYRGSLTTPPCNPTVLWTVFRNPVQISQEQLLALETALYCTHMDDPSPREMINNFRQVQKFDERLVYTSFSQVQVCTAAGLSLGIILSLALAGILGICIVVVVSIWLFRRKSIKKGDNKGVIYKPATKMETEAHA
Chain of hCA I (P00915 whole entry): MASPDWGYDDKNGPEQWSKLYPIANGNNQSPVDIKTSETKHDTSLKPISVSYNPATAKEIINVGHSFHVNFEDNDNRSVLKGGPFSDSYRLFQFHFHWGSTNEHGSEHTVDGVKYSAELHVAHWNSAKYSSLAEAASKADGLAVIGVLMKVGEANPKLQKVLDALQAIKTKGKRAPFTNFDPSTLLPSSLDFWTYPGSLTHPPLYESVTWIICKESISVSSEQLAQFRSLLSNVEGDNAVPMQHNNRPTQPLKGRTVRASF

Structure (SMILES) | Ki (hCA I) [nM] | experimental activity class hCA I (hCA I) | Ki (hCA II) [nM] | experimental activity class hCA II (hCA II) | Ki (hCA IX) [nM] | experimental activity class hCA IX (hCA IX) | Ki (hCA XII) [nM] | experimental activity class hCA XII (hCA XII) | inhibitory activity against α-amylase (α-amylase) | effect on rate of polymerization of Z α1-antitrypsin [1] | bacterial DNA gyrase B inhibition (bacterial DNA gyrase B) | selectivity for hCA II over hCA I (hCA II; hCA II vs hCA I)
CCOc1ccccc1C(=O)Nc1nc2ccc(S(N)(=O)=O)cc2s1 [Compound 11] | 666 | Active | 16.4 | Active | 73.7 | Active | 49.4 | Active | – | – | – | –
NS(=O)(=O)c1ccc(Nc2nc(-c3ccc(O)cc3O)cs2)cc1 [Compound 12] | 1080 | Inactive | 151 | Active | 313 | Active | 648 | Active | promising inhibitory activity | reduce the rate of polymerization | inhibitor | –
NS(=O)(=O)c1ccc(OCCn2ccnc2)cc1 [Compound 4] | 36.2 | Active | 6.8 | Active | 2520 | Inactive | 603 | Active | – | – | – | approximately five times more active
O=C(Nn1cnnc1)c1cccc(S(=O)(=O)Nc2cc(C(F)(F)F)ccc2Cl)c1 [Compound 3] | > 100000 | Inactive | > 100000 | Inactive | > 100000 | Inactive | > 100000 | Inactive | – | – | – | –
NS(=O)(=O)c1ccc(CCNC(=O)C/C=C2/NC(=O)c3c(sc4c3CCCC4)N2)cc1 [Compound 2] | 1020 | Inactive | 11.6 | Active | 713 | Active | 30.6 | Active | – | – | – | –
O=S(=O)(Nc1cccc(C(F)(F)F)c1)c1cc(Cl)ccc1Cl [Compound 10] | 31600 | Inactive | > 100000 | Inactive | > 100000 | Inactive | > 100000 | Inactive | – | – | – | –
